Results as given in PubChem BioAssay (NCI).
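Method: 48-hour compound exposure of cells in 96-well plates, five concentrations, linear interpolation of endpoints. TGI denotes the concentration required for complete inhibition of growth.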

Experiments:
Test in all cases: NCI tumour cell line growth inhibition, 48 h
XF 498 CNS = tested on: XF 498 CNS
DLD-1 colon = tested on: DLD-1 colon
LXFL 529 NSCLC = tested on: LXFL 529 NSCLC
DMS 114 small cell lung = tested on: DMS 114 small cell lung
M19-MEL melanoma = tested on: M19-MEL melanoma
SNB-78 CNS = tested on: SNB-78 CNS
DMS 273 small cell lung = tested on: DMS 273 small cell lung
HOP-18 NSCLC = tested on: HOP-18 NSCLC
RXF-631 renal = tested on: RXF-631 renal

SMILES | TGI (XF 498 CNS) [µM] | TGI (DLD-1 colon) [µM] | TGI (LXFL 529 NSCLC) [µM] | TGI (DMS 114 small cell lung) [µM] | TGI (M19-MEL melanoma) [µM] | TGI (SNB-78 CNS) [µM] | TGI (DMS 273 small cell lung) [µM] | TGI (HOP-18 NSCLC) [µM] | TGI (RXF-631 renal) [µM]
Nc1ccc(C(=O)NN2C(=O)C(Cl)C2c2ccccc2O)cc1 (centres undefined) | > 100 | > 100 | > 100 | 79.6 | > 100 | > 100 | > 100 | – | –
O=S1c2ccc(Cl)cc2CC(SSC2Cc3cc(Cl)ccc3S(=O)c3ccccc32)c2ccccc21 (centres undefined) | – | > 100 | > 100 | > 100 | > 100 | > 100 | > 100 | > 100 | > 100
CN(CCO)c1nc2c(c(=O)[nH]1)CNCC2 | > 100 | > 100 | > 100 | > 100 | > 100 | > 100 | > 100 | > 100 | –
CSC(=N)N1N=C2c3ccccc3CC[C@@H]2[C@@H]1c1ccccc1 | 30.6 | 31.7 | 24.2 | 28.7 | 29.4 | – | 28.5 | 47.8 | –
CCOC(=O)C1C(c2ccc([N+](=O)[O-])cc2)NC(c2ccc([N+](=O)[O-])cc2)C(C(=O)OC)S1(=O)=O (centres undefined) | > 100 | > 100 | > 100 | > 100 | > 100 | > 100 | > 100 | > 100 | –
COc1cc(-c2c(C)c(C)nc(OC)c2C#N)cc(OC)c1OC | – | > 100 | > 100 | > 100 | > 100 | > 100 | – | > 100 | –
COc1cc(CCCC(O)COc2cccc3c2C2(O)CCCCCC32)cc(OC)c1 (centres undefined) | 35.8 | 36.6 | 33.5 | 23.4 | 32.7 | 43.3 | 34.8 | 33.1 | –
CCCCCCCCCCCCNC1(C)CNCCCNCCNCCCNC1 | 3.35 | 3.07 | 3.05 | – | 3.13 | – | 1.6 | 3.07 | 3.57
